Reference: patent US20160303113A1 (LAGUNA PHARMACEUTICALS ,INC., priority 2013, published 2016)

Key:
[1] = Pharmacokinetic parameters from tests in dogs; type: in vivo, dog
Source text: Vanoxerine is primarily eliminated from the body in urine, bile, and feces. Indeed, a substantial amount of the drug is expelled, unabsorbed into the feces. […] However, the long half-life of the drug may actually be utilized to minimize the continuous or regular dosing of the drug.

[2] = Example 2: daily doses of vanoxerine for 11 consecutive days, PK and hemodynamics; type: in vivo, human
[3] = Example 3: daily vanoxerine for 14 days in healthy patients; type: in vivo, human
Method: A standardized meal was served 15 minutes prior to each dosing.

[4] = test system: atrial fibrillation/atrial flutter; assay: Example 6: placebo-controlled study of conversion of recent onset symptomatic AF/AFL to sinus rhythm; type: in vivo, human
Method: The vanoxerine or identical appearing placebo was randomly assigned and administered in a double-blinded fashion.
Definition of “pure” atrial flutter: only Atrial Flutter (no AF) seen at −30, −15, and 0 time points. Conversion at any time within 24 hours.

[5] = healthy subjects; cited from earlier work
[6] = Example 4: daily vanoxerine for 7 days; type: in vivo, human

Question: With `Fc1ccc(C(OCCN2CCN(CCCc3ccccc3)CC2)c2ccc(F)cc2)cc1` [Vanoxerine, 1-[2-[bis(4-fluorophenyl)methoxy]ethyl]-4-(3-phenylpropyl)piperazine] as the compound, how does the “elimination from the plasma T112” value [1] read?
Answer: 22 h

Question: What about the steady state reached ([2]; 50, 75 and 100 mg daily doses) of the same compound?
Answer: ≤ 8 days

Question: And the “plasma levels at 24 hours” value ([2]; 50, 75 and 100 mg doses)?
Answer: detectable

Question: And the adverse events ([3]; 25, 75, 125 mg daily for 14 days, healthy patients, after standardized meal)?
Answer: No significant adverse events

Question: What about the “all patients achieved steady state after” value ([3]; repetitive dosing, all patients) of the same compound?
Answer: 7 to 10 days

Question: And the “Adverse events: number of AEs reported” value ([4]; 200 mg (22))?
Answer: reporting 8 AEs

Question: What about the “Adverse events: number of SAEs” value ([4]; 200 mg (22)) of the same compound?
Answer: (1 SAE)

Question: And the “Adverse events: subjects reporting AEs, N (%)” value (from here on “Adverse events … (%)”) ([4]; 200 mg (22))?
Answer: 4 (18%) subjects

Question: And the “Adverse events: number of AEs reported” value ([4]; 300 mg (25))?
Answer: reporting 12 AEs

Question: What about the “Adverse events … (%)” value ([4]; 300 mg (25)) of the same compound?
Answer: 7 (28%) subjects

Question: And the “Adverse events: number of AEs reported” value ([4]; 400 mg (25))?
Answer: reporting 23 AEs

Question: What about the “Adverse events: number of SAEs” value ([4]; 400 mg (25)) of the same compound?
Answer: AEs (1 SAE)

Question: What about the “Adverse events … (%)” value ([4]; 400 mg (25)) of the same compound?
Answer: 10 (40%) subjects

Question: And the tolerability ([4]; all doses (200, 300, 400 mg))?
Answer: well tolerated at all doses

Question: What about the “conversion to sinus rhythm of recent onset symptomatic AF/AFL, dose dependence” value ([4]; doses of 200, 300 and 400 mg) of the same compound?
Answer: highly statistically significant dose dependent increase

Question: What about the “relation of the two serious adverse events to study drug” value ([4]; one at 200 mg (upper respiratory infection), one at 400 mg (lower extremity edema secondary to amlodipine)) of the same compound?
Answer: neither related to the study drug

Question: What about the “effects at higher doses (concentration difficulties, increase systolic blood pressure, asthenia, feeling of drug influence)” value [5] of the same compound?
Answer: some effects were seen

Question: What about the “systolic blood pressure and heart rate” value ([6]; 100 mg daily for 7 days) of the same compound?
Answer: increases

Question: What about the “systolic blood pressure and heart rate” value ([6]; 150 mg daily for 7 days) of the same compound?
Answer: increases

Question: And the Steady-state levels achieved ([6]; 50, 100, 150 mg daily for 7 days, all patients)?
Answer: within one week
